Measurements reported in paper PMC10882719 (Frontiers in Neuroscience, 2024).
Like-named read-outs stand apart in the source and are kept apart here.

Columns and labels:
amygdala gene expression = assay: RNA-seq differential gene expression, amygdala; assay type: in vivo, rat; conditions: 10 mg/kg IP, 8 h
168 GPCRs [1] = biological target: T1, 168 GPCRs (Homo sapiens, UniProt P25103); assay type: cell-based; conditions: TACR1
T1 construct: host or cells: PathHunter cell lines

168 GPCRs [2] = biological target: T2, 168 GPCRs (Homo sapiens, UniProt Q9Y5Y4); assay type: cell-based
T2 construct: host or cells: PathHunter cell lines
T2 sequence (Q9Y5Y4 1-395): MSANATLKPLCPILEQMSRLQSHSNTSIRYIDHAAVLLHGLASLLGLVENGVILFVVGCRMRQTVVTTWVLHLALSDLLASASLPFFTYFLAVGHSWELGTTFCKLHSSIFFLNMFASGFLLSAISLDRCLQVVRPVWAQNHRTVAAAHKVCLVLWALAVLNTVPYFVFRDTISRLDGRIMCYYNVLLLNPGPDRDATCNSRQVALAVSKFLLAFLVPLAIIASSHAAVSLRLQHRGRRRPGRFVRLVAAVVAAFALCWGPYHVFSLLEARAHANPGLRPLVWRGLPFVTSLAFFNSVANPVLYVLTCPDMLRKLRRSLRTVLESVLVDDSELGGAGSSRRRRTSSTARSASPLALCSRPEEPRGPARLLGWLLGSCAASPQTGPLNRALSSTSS

168 GPCRs [3] = biological target: T3, 168 GPCRs (Homo sapiens, UniProt Q9H1C0); assay type: cell-based
T3 construct: host or cells: PathHunter cell lines
T3 sequence (Q9H1C0 whole entry): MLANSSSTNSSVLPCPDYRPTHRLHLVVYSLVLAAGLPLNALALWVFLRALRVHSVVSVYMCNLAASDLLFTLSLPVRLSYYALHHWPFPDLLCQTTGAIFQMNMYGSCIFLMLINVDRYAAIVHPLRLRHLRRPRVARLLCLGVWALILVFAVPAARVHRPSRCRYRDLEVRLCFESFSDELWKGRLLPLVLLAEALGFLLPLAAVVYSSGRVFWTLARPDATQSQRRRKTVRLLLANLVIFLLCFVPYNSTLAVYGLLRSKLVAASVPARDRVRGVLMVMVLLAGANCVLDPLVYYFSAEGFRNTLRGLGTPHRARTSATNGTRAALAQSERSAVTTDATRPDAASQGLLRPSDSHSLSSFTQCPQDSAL

168 GPCRs [4] = biological target: T4, 168 GPCRs (Homo sapiens, UniProt P25090); assay type: cell-based
T4 construct: host or cells: PathHunter cell lines
T4 sequence (P25090 1-351): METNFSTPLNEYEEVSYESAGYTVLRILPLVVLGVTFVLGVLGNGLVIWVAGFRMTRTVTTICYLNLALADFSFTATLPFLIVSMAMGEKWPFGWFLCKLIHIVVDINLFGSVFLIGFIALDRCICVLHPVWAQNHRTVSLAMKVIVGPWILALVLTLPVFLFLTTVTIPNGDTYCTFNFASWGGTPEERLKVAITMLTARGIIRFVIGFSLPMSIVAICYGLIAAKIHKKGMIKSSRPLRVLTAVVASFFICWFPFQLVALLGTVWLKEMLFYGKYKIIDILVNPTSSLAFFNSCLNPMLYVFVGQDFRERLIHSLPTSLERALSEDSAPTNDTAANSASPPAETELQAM

168 GPCRs [5] = biological target: T5, 168 GPCRs (Homo sapiens, UniProt P48039); assay type: cell-based; conditions: MTNR1A
T5 construct: host or cells: PathHunter cell lines
T5 sequence (P48039 whole entry): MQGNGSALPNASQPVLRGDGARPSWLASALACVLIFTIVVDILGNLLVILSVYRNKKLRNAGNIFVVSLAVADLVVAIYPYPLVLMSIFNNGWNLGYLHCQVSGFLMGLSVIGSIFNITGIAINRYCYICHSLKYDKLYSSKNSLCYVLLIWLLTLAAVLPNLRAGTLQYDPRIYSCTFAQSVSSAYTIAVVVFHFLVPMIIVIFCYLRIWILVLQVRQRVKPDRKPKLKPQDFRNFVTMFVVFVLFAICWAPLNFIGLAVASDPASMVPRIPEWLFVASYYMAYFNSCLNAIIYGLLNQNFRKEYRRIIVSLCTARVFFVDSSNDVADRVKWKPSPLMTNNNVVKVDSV

168 GPCRs [6] = biological target: T6, 168 GPCRs (Homo sapiens, UniProt P08912); assay type: cell-based
T6 construct: host or cells: PathHunter cell lines
T6 sequence (P08912 1-532): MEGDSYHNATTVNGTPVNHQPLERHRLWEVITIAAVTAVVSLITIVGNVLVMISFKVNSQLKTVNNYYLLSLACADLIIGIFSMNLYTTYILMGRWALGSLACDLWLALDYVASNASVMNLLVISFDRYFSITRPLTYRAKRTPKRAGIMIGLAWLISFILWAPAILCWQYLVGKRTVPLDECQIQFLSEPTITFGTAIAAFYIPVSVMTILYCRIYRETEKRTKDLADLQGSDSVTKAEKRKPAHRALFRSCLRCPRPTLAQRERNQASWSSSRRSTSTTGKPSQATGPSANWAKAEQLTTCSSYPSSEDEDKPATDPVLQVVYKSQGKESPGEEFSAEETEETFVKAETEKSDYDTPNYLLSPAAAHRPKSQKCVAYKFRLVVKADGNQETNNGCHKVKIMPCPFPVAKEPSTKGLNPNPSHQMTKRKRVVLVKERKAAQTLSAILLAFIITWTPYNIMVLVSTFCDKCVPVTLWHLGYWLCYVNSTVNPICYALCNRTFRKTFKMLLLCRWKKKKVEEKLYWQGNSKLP

168 GPCRs [7] = biological target: T7, 168 GPCRs (Homo sapiens, UniProt Q99705); assay type: cell-based
T7 construct: host or cells: PathHunter cell lines
T7 sequence (Q99705 whole entry): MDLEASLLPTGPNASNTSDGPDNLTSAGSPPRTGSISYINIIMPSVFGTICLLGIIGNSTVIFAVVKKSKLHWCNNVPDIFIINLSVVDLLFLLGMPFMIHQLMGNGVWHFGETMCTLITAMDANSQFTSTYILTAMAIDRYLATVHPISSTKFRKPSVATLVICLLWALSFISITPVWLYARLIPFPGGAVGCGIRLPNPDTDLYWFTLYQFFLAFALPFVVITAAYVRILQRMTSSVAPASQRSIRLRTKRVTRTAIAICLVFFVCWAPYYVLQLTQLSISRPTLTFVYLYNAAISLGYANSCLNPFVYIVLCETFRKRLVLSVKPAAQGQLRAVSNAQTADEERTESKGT

168 GPCRs [8] = biological target: T8, 168 GPCRs (Homo sapiens, UniProt P30518); assay type: cell-based
T8 construct: host or cells: PathHunter cell lines
T8 sequence (P30518 whole entry): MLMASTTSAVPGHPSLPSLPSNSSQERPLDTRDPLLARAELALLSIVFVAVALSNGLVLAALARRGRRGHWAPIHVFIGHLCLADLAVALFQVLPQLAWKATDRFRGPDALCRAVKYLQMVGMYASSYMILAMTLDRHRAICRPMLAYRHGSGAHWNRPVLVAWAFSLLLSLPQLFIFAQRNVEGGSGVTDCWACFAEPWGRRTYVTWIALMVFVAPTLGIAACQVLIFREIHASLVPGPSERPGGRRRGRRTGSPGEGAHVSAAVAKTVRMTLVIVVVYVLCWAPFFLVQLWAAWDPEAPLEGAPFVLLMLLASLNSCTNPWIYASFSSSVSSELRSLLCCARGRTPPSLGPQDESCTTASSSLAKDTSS

[9] = tested on: frontal cortex gene expression; assay: RNA-seq differential gene expression, frontal cortex; assay type: in vivo, rat; conditions: 10 mg/kg IP, 8 h; for Number of genes significantly regulated: vs vehicle
5HT2A receptor = biological target: T9, 5HT2A receptor (Homo sapiens, UniProt P28223); assay: GPCRmax screen, agonist mode, 5HT2A; assay type: cell-based; conditions: for % Agonist Activity: HTR2A
T9 construct: β-galactosidase enzyme fragment (enzyme fragment complementation reporter); host or cells: PathHunter cell lines
T9 sequence (P28223 whole entry, the tested form may be a part): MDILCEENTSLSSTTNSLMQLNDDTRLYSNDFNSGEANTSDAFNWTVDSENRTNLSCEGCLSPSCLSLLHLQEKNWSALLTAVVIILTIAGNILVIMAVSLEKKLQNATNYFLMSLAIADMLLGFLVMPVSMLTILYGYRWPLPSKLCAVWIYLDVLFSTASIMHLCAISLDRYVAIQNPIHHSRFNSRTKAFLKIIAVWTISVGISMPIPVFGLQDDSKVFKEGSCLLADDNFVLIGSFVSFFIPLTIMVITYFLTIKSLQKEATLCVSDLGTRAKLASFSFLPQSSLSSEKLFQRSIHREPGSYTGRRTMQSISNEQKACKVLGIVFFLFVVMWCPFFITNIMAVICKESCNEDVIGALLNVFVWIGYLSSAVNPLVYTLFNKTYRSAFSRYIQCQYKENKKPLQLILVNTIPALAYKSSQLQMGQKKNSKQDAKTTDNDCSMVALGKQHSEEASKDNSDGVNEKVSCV
Method: Studies were performed at Eurofins DiscoverX Corporation (Fremont, CA) using the GPCRmax assay according to the manufacturer’s protocols. […] Activity greater than 30% typically indicates agonist activity and inhibition greater than 50% indicates antagonist activity. This assay uses enzyme fragment complementation with […] as the functional reporter. When a GPCR is activated, […] is recruited and the reporter is detectable. GPCRmax offers a high-throughput screen of 168 GPCRs for agonist or antagonist activity. Briefly, PathHunter cell lines were propagated, seeded into 384-well microplates and incubated at 37°C. […] Microplates were read following signal generation with a PerkinElmer Envision™ instrument for chemiluminescent signal detection. Compound activity was analyzed using CBIS data analysis suite (ChemInnovation, CA) to determine raw values (RLU). For agonist mode assay, percentage activity was calculated using the following formula: % Activity =100% × (mean RLU of test sample - mean RLU of vehicle control) / (mean MAX control ligand - mean RLU of vehicle control). For antagonist mode assay, percentage inhibition was calculated using the following formula: % Inhibition =100% × (1 - (mean RLU of test sample - mean RLU of vehicle control) / (mean RLU of EC80 control - mean RLU of vehicle control)).

T1 sequence (P25103 whole entry): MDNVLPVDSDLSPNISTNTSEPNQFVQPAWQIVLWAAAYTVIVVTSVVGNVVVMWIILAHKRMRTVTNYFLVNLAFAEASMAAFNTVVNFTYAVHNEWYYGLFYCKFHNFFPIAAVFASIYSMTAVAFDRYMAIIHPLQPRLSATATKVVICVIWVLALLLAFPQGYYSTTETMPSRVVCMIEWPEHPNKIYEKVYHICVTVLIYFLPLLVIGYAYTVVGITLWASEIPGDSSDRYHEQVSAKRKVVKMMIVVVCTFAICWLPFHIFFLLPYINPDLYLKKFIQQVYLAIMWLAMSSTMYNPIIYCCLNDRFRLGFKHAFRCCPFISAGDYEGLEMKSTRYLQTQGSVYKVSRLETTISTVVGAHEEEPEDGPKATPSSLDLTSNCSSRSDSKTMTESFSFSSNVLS

CNC(C)Cc1ccc2c(c1)OCO2 (stereo not drawn) [MDMA, 3,4-Methylenedioxy methamphetamine, reference compound]
Additional genes significantly regulated by this drug only (amygdala gene expression; vs vehicle): 1,313
% Agonist Activity (168 GPCRs [1]; Conc 1 uM): -0.2%
% Antagonist Activity (168 GPCRs [1]; Conc 1 uM): 4.4%
% Agonist Activity (168 GPCRs [1]; Conc 10 uM): -0.1%
% Antagonist Activity (168 GPCRs [1]; Conc 10 uM): -2.1%
% Agonist Activity (168 GPCRs [2]; CRTH2, 1 uM): -4.1%
% Antagonist Activity (168 GPCRs [2]; CRTH2, 1 uM): 19.8%
% Agonist Activity (168 GPCRs [2]; CRTH2, 10 uM): -3%
% Antagonist Activity (168 GPCRs [2]; CRTH2, 10 uM): 17.2%
% Agonist Activity (168 GPCRs [3]; GPR92, 1 uM): -4%
% Antagonist Activity (168 GPCRs [3]; GPR92, 1 uM): 6.8%
% Agonist Activity (168 GPCRs [3]; GPR92, 10 uM): -2.2%
% Antagonist Activity (168 GPCRs [3]; GPR92, 10 uM): 8%
% Agonist Activity (168 GPCRs [4]; FPRL1, 1 uM): -0.1%
% Antagonist Activity (168 GPCRs [4]; FPRL1, 1 uM): 14.8%
% Agonist Activity (168 GPCRs [4]; FPRL1, 10 uM): -0.1%
% Antagonist Activity (168 GPCRs [4]; FPRL1, 10 uM): 16.7%
% Agonist Activity (168 GPCRs [5]; 1 uM): -9.2%
% Antagonist Activity (168 GPCRs [5]; 1 uM): 18.4%
% Agonist Activity (168 GPCRs [5]; 10 uM): -9.6%
% Antagonist Activity (168 GPCRs [5]; 10 uM): 17.7%
% Agonist Activity (168 GPCRs [6]; CHRM5, 1 uM): 8.8%
% Antagonist Activity (168 GPCRs [6]; CHRM5, 1 uM): 11.2%
% Agonist Activity (168 GPCRs [6]; CHRM5, 10 uM): 8.3%
% Antagonist Activity (168 GPCRs [6]; CHRM5, 10 uM): 14.4%
% Agonist Activity (168 GPCRs [7]; MCHR1, 1 uM): -4%
% Antagonist Activity (168 GPCRs [7]; MCHR1, 1 uM): 5.3%
% Agonist Activity (168 GPCRs [7]; MCHR1, 10 uM): -4.4%
% Antagonist Activity (168 GPCRs [7]; MCHR1, 10 uM): 2.1%
% Agonist Activity (168 GPCRs [8]; AVPR2, 1 uM): -2.9%
% Antagonist Activity (168 GPCRs [8]; AVPR2, 1 uM): -7.8%
% Agonist Activity (168 GPCRs [8]; AVPR2, 10 uM): -2.2%
% Antagonist Activity (168 GPCRs [8]; AVPR2, 10 uM): -0.4%
More genes significantly regulated compared to methylone ([9]; frontal cortex): ~ 72%
Number of genes significantly regulated ([9]; frontal cortex): 825 genes
% agonist activity, 5HT2A (5HT2A receptor; 10 μM, cutoff 30% activity): 27.5%
% Agonist Activity (5HT2A receptor; 1 uM): 4.9%
% Agonist Activity (5HT2A receptor; 10 uM): 27.5%

CNC(C)C(=O)c1ccc2c(c1)OCO2 (stereo not drawn) [methylone]
Share of genes regulated by this drug that are also regulated by the other drug (amygdala gene expression): 87%
% Agonist Activity (168 GPCRs [1]; Conc 1 uM): -3.9%
% Antagonist Activity (168 GPCRs [1]; Conc 1 uM): 15.2%
% Agonist Activity (168 GPCRs [1]; Conc 10 uM): -4.4%
% Antagonist Activity (168 GPCRs [1]; Conc 10 uM): 8.9%
% Agonist Activity (168 GPCRs [2]; CRTH2, 1 uM): -5.7%
% Antagonist Activity (168 GPCRs [2]; CRTH2, 1 uM): 9%
% Agonist Activity (168 GPCRs [2]; CRTH2, 10 uM): -5%
% Antagonist Activity (168 GPCRs [2]; CRTH2, 10 uM): 8.9%
% Agonist Activity (168 GPCRs [3]; GPR92, 1 uM): -1.6%
% Antagonist Activity (168 GPCRs [3]; GPR92, 1 uM): -8%
% Agonist Activity (168 GPCRs [3]; GPR92, 10 uM): -3.5%
% Antagonist Activity (168 GPCRs [3]; GPR92, 10 uM): 5.8%
% Agonist Activity (168 GPCRs [4]; FPRL1, 1 uM): -0.5%
% Antagonist Activity (168 GPCRs [4]; FPRL1, 1 uM): 12.3%
% Agonist Activity (168 GPCRs [4]; FPRL1, 10 uM): 0.1%
% Antagonist Activity (168 GPCRs [4]; FPRL1, 10 uM): 3.9%
% Agonist Activity (168 GPCRs [5]; 1 uM): -12.3%
% Antagonist Activity (168 GPCRs [5]; 1 uM): 30.8%
% Agonist Activity (168 GPCRs [5]; 10 uM): -11.7%
% Antagonist Activity (168 GPCRs [5]; 10 uM): 7.8%
% Agonist Activity (168 GPCRs [6]; CHRM5, 1 uM): 7.2%
% Antagonist Activity (168 GPCRs [6]; CHRM5, 1 uM): -8%
% Agonist Activity (168 GPCRs [6]; CHRM5, 10 uM): 8.7%
% Antagonist Activity (168 GPCRs [6]; CHRM5, 10 uM): -7.6%
% Agonist Activity (168 GPCRs [7]; MCHR1, 1 uM): 3.9%
% Antagonist Activity (168 GPCRs [7]; MCHR1, 1 uM): -12.2%
% Agonist Activity (168 GPCRs [7]; MCHR1, 10 uM): 3.1%
% Antagonist Activity (168 GPCRs [7]; MCHR1, 10 uM): -18.3%
% Agonist Activity (168 GPCRs [8]; AVPR2, 1 uM): -0.9%
% Antagonist Activity (168 GPCRs [8]; AVPR2, 1 uM): -2.7%
% Agonist Activity (168 GPCRs [8]; AVPR2, 10 uM): 1%
% Antagonist Activity (168 GPCRs [8]; AVPR2, 10 uM): -14.8%
Induction of BDNF, increase compared with controls ([9]; RNA-seq): ~ 60%
Number of genes significantly regulated ([9]; frontal cortex): 480 genes
% Agonist Activity (5HT2A receptor; 1 uM): -0.1%
% Agonist Activity (5HT2A receptor; 10 uM): 1.4%
